Experimental data: US9174979B2, “Phenanthroindolizidine compound and NFκB inhibitor containing same as active ingredient” (KABUSHIKI KAISHA YAKULT HONSHA, priority 2008, dated 2015)
Marks after values point to notes of the source that are not given here.

What was measured:
[1] = system: human colon cancer HT-29 cells; test: Inhibitory action on the proliferation of HT-29 cells; type: cell-based; conditions: 96 hours culture, TetraColor ONE; for IC50: Homo sapiens, HT-29
Description: (§1) The action of the phenanthroindolizidine alkaloid compound of the present invention on the proliferation of human colon cancer SW480 cells, HT-29 cells, and human non-small cell lung cancer A549 cells was studied. The SW480 cells were suspended in a 10% FBS/RPMI1640 and then seeded in a 96-well microplate, followed by culturing in 5% CO2 at 37° C. (2000 cells/well). The A549 cells and the HT-29 cells were each suspended in a DMEM medium containing 10% FBS, 100 U/mL penicillin, and 100 μg/mL streptomycin (10% FBS/DMEM) and a DMEM F-12 HAM medium containing 10% FBS, 100 U/mL penicillin, and 100 μg/mL streptomycin (10% FBS/DMEM F12 HAM), and then seeded in 96-well microplates, followed by culturing in 5% CO2 at 37° C. (1000 cells/well). After an overnight culture, the compound of the present invention was added, followed by further culturing for 48 hours (SW480 cells) and 96 hours (A549 cells and HT-29 cells). After culturing, the number of viable cells was counted using TetraColor ONE (Seikagaku Corporation) in accordance with the attached operating procedure. The results were expressed as the concentration of a test compound needed for 50% inhibition of the proliferation of the cells (IC50).

[2] = system: mouse fibrosarcoma Meth A cells; test: Antitumor effect in mice transplanted with mouse fibrosarcoma Meth A cells; type: in vivo; conditions: intravenous on days 1, 5, 9, BALB/c mice, tumor weight on day 21
Description: The antitumor effect of the phenanthroindolizidine alkaloid compound of the present invention in vivo was studied using mice transplanted with mouse fibrosarcoma Meth A cells. Meth A cells were transplanted subcutaneously in the inguinal region of male 7-week-old BALB/c mice (2.5×10^5 cells/mouse). Subsequently, on days 1, 5, and 9, the compound of the present invention was intravenously administered. To a control group, physiological saline as a solvent, was administered. On day 21 after the cell transplantation, tumor was excised and measured for its weight, and subsequently a tumor growth-inhibition rate IR (%) was obtained by the following formula. Tumor growth-inhibition rate IR(%)=(1−the weight of the tumor in an administration group/the weight of the tumor in a control group)×100

[3] = system: human non-small cell lung cancer A549 cells; test: Inhibitory action on the proliferation of A549 cells; type: cell-based; conditions: 96 hours culture, TetraColor ONE; for IC50: Homo sapiens, A549
Description: as §1

[4] = system: mice with TPA-induced ear edema; test: Anti-inflammatory effect in mice with TPA-induced ear edema; type: in vivo, mouse; conditions: intraperitoneal, 30 minutes before TPA 5 μg/ear; ICR mice; four hours after TPA
Description: The anti-inflammatory effect of the phenanthroindolizidine alkaloid compound of the present invention in vivo was studied using mice with phorbol 12-myristate 13-acetate (TPA)-induced ear edema. Compound 11, a compound of the present invention, was intraperitoneally administered to male 6-week-old ICR mice, and after 30 minutes, TPA (Sigma-Aldrich Corporation) dissolved in acetone was applied to the front and back of the right ear of the mice (5 μg/ear). Four hours after application of TPA, the thickness of the auricle was measured by a dial thickness gauge (Ozaki Mfg Co. Ltd.). A control group was administered with a 5% glucose solution as a solvent.

[5] = Measurement of solubility; conditions: saline or isotonic
Text: In in vivo studies, the phenanthroindolizidine alkaloid compounds were used in the form of a salt.

[6] = system: human colon cancer SW480 cells; test: Inhibitory action on the proliferation of SW480 cells; type: cell-based; conditions: 48 hours culture, TetraColor ONE; for IC50: Homo sapiens, SW480
Description: as §1

SV40 promoter = SV40 promoter luciferase reporter assay in SW480/SV40-Luc cells; type: cell-based, human; conditions: for IC50: Homo sapiens, SW480, read-out: SV40 promoter inhibitory activity IC50
Text: (§2) The action of the phenanthroindolizidine alkaloid compound of the present invention on the NFκB activity was studied in a luciferase assay. Human colon cancer SW480 cells were transfected with pNFκB-Luc Plasmid (Stratagene), which is a reporter vector in which a five-time tandem repeat of the NFκB responsive element (NRE) is integrated into the upstream of the luciferase gene, using Lipofectamine 2000 (Invitrogen Corporation) in accordance with the attached operating procedure. Subsequently, the cells were cultured in an RPMI1640 medium containing 10% FBS, 100 U/mL penicillin, 100 μg/mL streptomycin, and 0.5 mg/mL G418 to produce SW480 cells having the luciferase gene, the expression of which is regulated by NRE, stably introduced therein (SW480/NRE-Luc cells). Likewise, SW480 cells were transfected with pGL3-Control Vector (Promega Corporation), which is a reporter vector in which the SV40 promoter is integrated into the upstream of the luciferase gene, to produce SW480 cells having the luciferase gene, the expression of which is regulated by the SV40 promoter, stably introduced therein (SW480/SV40-Luc cells). The SW480/NRE-Luc cells or the SW480/SV40-Luc cells were suspended in an RPMI1640 medium containing 10% FBS, 100 U/mL penicillin, and 100 μg/mL streptomycin (10% FBS/RPMI1640), and then seeded in a 96-well microplate, followed by culturing under conditions of 5% CO2 and at 37° C. (5000 cells/well). After an overnight culture, the compound of the present invention was added, followed by culturing for one hour. Further, 50 ng/mL TNFα (Sigma-Aldrich Corporation) was added, followed by culturing for four hours. Subsequently, a Steady-Glo Luciferase Assay reagent (Promega Corporation) was added, and the luminescent intensity was detected by SpectraMax M5e (Molecular Devices, Inc.) to measure the intracellular luciferase activity. It is to be noted that the action of the compound of the present invention on the NFκB activity or the SV40 promoter activity was shown as IC50 values (the concentration of a test compound needed for 50% inhibition of the induction of the luciferase expression).

NFκB = NFκB luciferase reporter assay in SW480/NRE-Luc cells stimulated with TNFα; type: cell-based, human; conditions: for IC50: Homo sapiens, SW480, read-out: NFκB inhibitory activity IC50
Text: as §2

mice = test: Animal toxicity test in mice transplanted with Meth A cells; type: in vivo, mouse; conditions: intravenous on days 1, 5, 9, observed for three weeks
Description: Also, the toxicity of known phenanthroindolizidine alkaloid compounds in mice, namely (12aS,13S)-6,7-dimethoxy-9,10,11,12,12a,13-hexahydro-9a-aza-cyclopenta[b]triphenylene-3,13-diol (known compound 1; refer to WO01/023384) and (12aS,13S)-3,6,7-trimethoxy-9,10,11,12,12a,13-hexahydro-9a-aza-cyclopenta[b]triphenylene-13-ol (known compound 2; refer to Planta Med., 2002, 68: 186-188), was simultaneously studied. To a control group, a physiological saline solution as a solvent, was administered.

[7] = system: human colon cancer HCT116 cells; test: Antitumor effect in mice transplanted with human colon cancer HCT116 cells; type: in vivo; conditions: intraperitoneal on days 1 to 5 and 8 to 12, BALB/c nude mice, tumor weight on day 21
Text: The antitumor effect of the phenanthroindolizidine alkaloid compound of the present invention in vivo was studied using mice transplanted with human colon cancer HCT116 cells. HCT116 cells were transplanted subcutaneously in the inguinal region of male 6-week-old BALB/c nude mice (2×10^6 cells/mouse). On days 1 to 5 and on days 8 to 12 after the time at which the estimated tumor volume obtained by 1/2ab^2 (a and b indicate the major axis and the minor axis of tumor, respectively) reached approximately 100 mm^3 (day 0), the compound of the present invention was administered (intraperitoneal administration). To a control group, a 5% glucose solution as a solvent, was administered. On day 21, tumor was excised and measured for its weight, and subsequently a tumor proliferation-inhibition rate IR (%) was calculated.

COc1cc2c3c(c4ccc(O)cc4c2cc1OC)C[C@@H]1CCCN1C3.Cl [Compound 11, (S)-6,7-dimethoxy-9,10,11,12,12a,13-hexahydro-9a-aza-cyclopenta[b]triphenylene-3-ol hydrochloride]
IC50 [1]: 0.62 ng/mL
Tumor growth inhibition rate IR ([2]; total dose 25 mg/kg): 52.1** %
Tumor growth inhibition rate IR ([2]; total dose 50 mg/kg): 64.6** %
IC50 [3]: 0.024 ng/mL
Anti-inflammatory effect (thickness of the auricle) [4]: inhibiting TPA-induced ear edema in a dose-dependent manner
solubility [5]: 4000 µg/mL
IC50 [6]: 3.8 ng/mL
IC50 (SV40 promoter): > 10 ng/mL
IC50 (NFκB): 1.2 ng/mL
Mortality rate (mice; total dose 25 mg/kg): 0/5
Mortality rate (mice; total dose 50 mg/kg): 0/5

COc1cc2c3c(c4ccc(O)cc4c2cc1OC)C[C@H]1CCCN1C3.Cl [Compound 12, (R)-6,7-dimethoxy-9,10,11,12,12a,13-hexahydro-9a-aza-cyclopenta[b]triphenylene-3-ol hydrochloride]
IC50 [1]: 50.4 ng/mL
Tumor growth inhibition rate IR ([2]; total dose 25 mg/kg): 25.3%
Tumor growth inhibition rate IR ([2]; total dose 50 mg/kg): 58.8** %
IC50 [3]: 12.7 ng/mL
IC50 [6]: 50.4 ng/mL
IC50 (SV40 promoter): > 10000 ng/mL
IC50 (NFκB): 18.1 ng/mL
Mortality rate (mice; total dose 25 mg/kg): 0/5
Mortality rate (mice; total dose 50 mg/kg): 0/5

Cl.Oc1ccc2c3c(c4cc5c(cc4c2c1)OCO5)CN1CCC[C@H]1[C@H]3O [Compound 8, (12aS,13S)-6,7-methylenedioxy-9,10,11,12,12a,13-hexahydro-9a-aza-cyclopenta[b]triphenylene-3,13-diol hydrochloride]
IC50 [1]: 46.9 ng/mL
IC50 [3]: 19.3 ng/mL
IC50 [6]: 26.7 ng/mL
IC50 (SV40 promoter): > 10000 ng/mL
IC50 (NFκB): 8.4 ng/mL
Mortality rate (mice; total dose 25 mg/kg): 0/5
Mortality rate (mice; total dose 50 mg/kg): 0/5

COc1cc2c3c(c4ccc(O)cc4c2cc1OC)[C@H](OC(C)=O)[C@@H]1CCCN1C3.Cl [Compound 5, acetic acid(12aS,13S)-3-hydroxy-6,7-dimethoxy-9,10,11,12,12a,13-hexahydro-9a-aza-cyclopenta[b]triphenylene-13-yl ester hydrochloride]
HT-29 proliferation inhibitory action IC50 [1]: 2.3 ng/mL
A549 proliferation inhibitory action IC50 [3]: 0.5 ng/mL
SW480 proliferation inhibitory action IC50 [6]: 5.0 ng/mL
SV40 promoter inhibitory activity IC50 (SV40 promoter; SW480/SV40-Luc cells, luciferase expression): >100 ng/mL
NFκB inhibitory activity IC50 (NFκB; SW480/NRE-Luc cells, 50 ng/mL TNFα, luciferase expression): 27.0 ng/mL
Mortality rate (mice; total dose 25 mg/kg): 0/5
Mortality rate (mice; total dose 50 mg/kg): 0/5

Cl.Oc1ccc2c3c(c4cc5c(cc4c2c1)OCO5)CN1CCC[C@H]1C3 [Compound 13, (S)-6,7-methylenedioxy-9,10,11,12,12a,13-hexahydro-9a-aza-cyclopenta[b]triphenylene-3-ol hydrochloride]
IC50 [1]: 260 ng/mL
Tumor growth inhibition rate IR ([2]; total dose 25 mg/kg): 45.6* %
Tumor growth inhibition rate IR ([2]; total dose 50 mg/kg): 31.5%
IC50 [3]: 48.2 ng/mL
IC50 [6]: 38.7 ng/mL
IC50 (SV40 promoter): > 10000 ng/mL
IC50 (NFκB): 48.4 ng/mL
Mortality rate (mice; total dose 25 mg/kg): 0/5
Mortality rate (mice; total dose 50 mg/kg): 0/5

CCOc1cc2c3c(c4ccc(O)cc4c2cc1OCC)[C@H](O)[C@@H]1CCCN1C3.Cl [Compound 10, (12aS,13S)-6,7-diethoxy-9,10,11,12,12a,13-hexahydro-9a-aza-cyclopenta[b]triphenylene-3,13-diol hydrochloride]
IC50 [1]: 0.47 ng/mL
IC50 [3]: 0.27 ng/mL
IC50 [6]: 6.7 ng/mL
IC50 (SV40 promoter): > 100 ng/mL
IC50 (NFκB): 4.1 ng/mL
Mortality rate (mice; total dose 25 mg/kg): 0/5
Mortality rate (mice; total dose 50 mg/kg): 0/5

COc1cc2c3c(c4ccc(O)cc4c2c(OC)c1OC)[C@H](O)[C@@H]1CCCN1C3.Cl [Compound 1, (12aS,13S)-5,6,7-trimethoxy-9,10,11,12,12a,13-hexahydro-9a-aza-cyclopenta[b]triphenylene-3,13-diol hydrochloride]
IC50 [1]: 637 ng/mL
IC50 [3]: 560 ng/mL
IC50 [6]: 1970 ng/mL
IC50 (SV40 promoter): > 10000 ng/mL
IC50 (NFκB): 668 ng/mL
Mortality rate (mice; total dose 25 mg/kg): 0/5
Mortality rate (mice; total dose 50 mg/kg): 0/5

COc1cc2c3c(c4ccc(O)cc4c2cc1OC)CN1CCC[C@H]1[C@H]3O.Cl [Compound 15, (12aS,13S)-2,3-dimethoxy-9,10,11,12,12a,13-hexahydro-9a-aza-cyclopenta[b]triphenylene-6,13-diol hydrochloride]
IC50 [1]: 56.6 ng/mL
IC50 [3]: 34 ng/mL
IC50 [6]: 4.2 ng/mL
IC50 (SV40 promoter): > 10000 ng/mL
IC50 (NFκB): 2 ng/mL
Mortality rate (mice; total dose 25 mg/kg): 0/5
Mortality rate (mice; total dose 50 mg/kg): 0/5

(S)-6,7-dimethoxy-9,10,11,12,12a,13-hexahydro-9a-aza-cyclopenta[b]triphenylene-3-ol methanesulfonate [Compound 16]
Tumor growth inhibition rate IR ([7]; total dose 100 mg/kg): 35.7*** %
Tumor growth inhibition rate IR ([7]; total dose 200 mg/kg): 48.7*** %
